From US10829516B2 (London Health Sciences Centre Research Inc., priority 2015, dated 2020)
Non-standard residues stand in square brackets, D forms with d. Residues, ends and D or L forms follow the SMILES beside them. *: point of attachment. 1Nal = N[C@@H](Cc1cccc2ccccc12)C(=O)O; d2Nal = N[C@H](Cc1ccc2ccccc2c1)C(=O)O; Benzoyl(4-F) = O=C(c1ccc(F)cc1)*; d2Thi = N[C@H](Cc1cccs1)C(=O)O; Propanoyl(2-F) = CC(F)C(=O)*; Dap = NC[C@H](N)C(=O)O; Aib = CC(C)(N)C(=O)O; Inp = O=C(O)C1CCNCC1

How the values were obtained:
[1] = target: T1, GHS-R1a (Homo sapiens, UniProt Q92847); assay: Receptor-ligand competitive binding assay, HEK293/GHS-R1a cells with [125I]ghrelin as radioligand
T1 construct: expressed in transfected cells; host or cells: HEK293
Protocol: Receptor-Ligand Binding Assay
Competitive binding assays were run at the Lawson Health Research Institute at St. Joseph's Health Care in London. […] To begin with, a fresh solution of binding buffer (50 ml) was made up by adding HEPES (0.3 g, 25 mM), MgCl2 (0.051 g, 5 mM), CaCl2 (7.4×10^−3 g, 1 mM), EDTA (0.015 g, 2.5 mM) and BSA (0.2 g, 0.4%) to distilled H2O. The resultant solution was mixed over gentle heat. The pH was then adjusted to 7.4 and the solution filtered. Two miniature complete protease inhibitor tablets were then added and the final buffer solution kept on ice.
After the buffer had been made, assay tubes were labelled and kept on ice during the setup. To assay tubes 1-21, 25-27 and 28-30 was added binding buffer (200 μl, 230 μl and 300 μl respectively). No buffer was added to tubes 22-24. An aliquot of frozen cells was thawed to room temperature, centrifuged (3000×g, 10 mins, room temperature) and the subsequent cell pellet re-suspended in binding buffer (2 ml) and placed on ice. Cells (50 μl) were then added to assay tubes 1-21 and 25-27. Cold peptide was then prepared. This was carried out by adding stock peptide (20 μl) to binding buffer (180 μl) to make a peptide solution of 10^−4M concentration. Binding buffer (180 μl) was then added to assay tubes labelled 10^−5 to 10^−11. A series of dilutions was then made in order to acquire 10^−5 to 10^−11M concentrations. Cold peptide (30 μl) was then added to the corresponding assay tubes in triplicate.
All assay tubes were then vortexed, capped and immediately agitated (550 rpm, 20 mins, 37° C.). After 20 minutes, tubes 1-21 and 25-27 were spun in a large centrifuge (2800 rpm, 2 mins, 4° C.). The solution in all of the tubes was then transferred to Eppendorf tubes (0.5 ml), further binding buffer added (200 μl), the solutions mixed by pipetting and transferred to 0.5 ml tubes. The tubes were then spun again (13 000×g, 5 mins, 4° C.) and placed on ice. The supernatant was removed and the cell pellet rinsed with ice-cold Tris-HCl (200 μl, 50 mM, pH 7.4) and the tubes mixed by inversion. Tubes were spun a final time (13,000×g, 5 mins, 4° C.), cooled on ice and supernatant removed. The tubes were then placed in 12×75 mm assay tubes and counted using a gamma counter (see protocol 3). The binding assay may be summarized as follows:
Competitive binding assays were run on the compounds of Table 2 as described in Example 1. The formulas of the compounds of Table 2 are illustrated in FIGS. 49 and 50.

[2] = target: Human recombinant ghrelin receptor (Homo sapiens, UniProt Q92847); assay: Calcium flux dose-response assay (FLIPR TETRA, EMD Millipore GPCRProfiler); format: cell-based; details: for EC50 value compared with ghrelin: FIGS. 51 and 52, Example 3
Protocol: Another in vitro assay performed on the 4-fluorobenzoyl agonist [1-Nal^4,Lys^5(4-FB)]G-7039 and the [Lys^5(2-FP)]G-7039 agonist was a calcium flux dose-response assay. […] In this particular case, the biological effect of the peptidomimetic [1-Nal^4,Lys^5(4-FB)]G-7039 and the peptidomimetic [Lys^5(2-FP)]G-7039 is the release of intracellular calcium ions, a process which is detected by fluorescence using a […] instrument.
If the compound remained soluble 15 minutes after addition, samples were shipped to the EMD Millipore Corporation (15 Research Park Drive, St. Charles, Mo. 63304, USA). […] The agonist assay was performed for a total of 180 seconds. Each assay and assay concentration was performed in duplicate. The data acquired is presented in FIG. 51 ([1-Nal^4,Lys^5(4-FB)]G-7039) and FIG. 52 (Lys^5(2-FP)]G-7039).

[3] = system: GH release; details: Elias et al., Endocrinology 1995, read-out: EC50, reported half-maximal effective concentration; cited from earlier work

Human recombinant ghrelin receptor, sequence (Q92847 whole entry): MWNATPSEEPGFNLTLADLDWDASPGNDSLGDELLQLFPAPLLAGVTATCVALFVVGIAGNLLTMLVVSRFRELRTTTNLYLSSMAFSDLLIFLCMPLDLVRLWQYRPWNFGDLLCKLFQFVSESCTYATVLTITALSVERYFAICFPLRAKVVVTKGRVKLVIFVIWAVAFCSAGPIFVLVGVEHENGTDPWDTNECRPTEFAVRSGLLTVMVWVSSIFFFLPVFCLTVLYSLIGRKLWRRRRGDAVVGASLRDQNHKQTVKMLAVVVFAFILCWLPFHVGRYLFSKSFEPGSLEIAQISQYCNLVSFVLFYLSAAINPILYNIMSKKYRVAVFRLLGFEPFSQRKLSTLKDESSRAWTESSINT
T1 sequence (Q92847 whole entry): as above

IC50 [1] [µM]	SMILES	further results
0.17	CC(C)(N)C(=O)N[C@@H](Cc1c[nH]cn1)C(=O)N[C@H](Cc1ccc2ccccc2c1)C(=O)N[C@H](Cc1ccccc1)C(=O)N[C@@H](CCCCNC(=O)c1ccc(F)cc1)C(N)=O [4-FB-Ipamorelin, H-Aib-His-D-2-Nal-D-Phe-Lys(4-FB)-NH2] (H-[Aib]H[d2Nal][dF]K(Benzoyl(4-F))-NH2)	
	CC(F)C(=O)NCCCC[C@H](NC(=O)[C@H](Cc1ccccc1)NC(=O)[C@@H](Cc1ccc2ccccc2c1)NC(=O)[C@@H](Cc1ccc2ccccc2c1)NC(=O)C1CCNCC1)C(N)=O (stereo partly drawn) [Compound 2-FP-G-7039, H-Inp-D-2-Nal-D-2-Nal-Phe-Lys(2-FP)-NH2] (H-[Inp][d2Nal][d2Nal]FK(Propanoyl(2-F))-NH2)	EC50 value compared with ghrelin [2]: below that of ghrelin
0.242	NC(=O)[C@H](CCCCNC(=O)c1ccc(F)cc1)NC(=O)[C@H](Cc1ccccc1)NC(=O)[C@@H](Cc1ccc2ccccc2c1)NC(=O)[C@@H](Cc1ccc2ccccc2c1)NC(=O)C1CCNCC1 [Compound 4-FB-G-7039, H-Inp-D-2-Nal-D-2-Nal-Phe-Lys(4-FB)-NH2] (H-[Inp][d2Nal][d2Nal]FK(Benzoyl(4-F))-NH2)	
0.384	C[C@H](NC(=O)[C@@H](Cc1c[nH]c2ccccc12)NC(=O)[C@@H](N)Cc1c[nH]cn1)C(=O)N[C@@H](Cc1c[nH]c2ccccc12)C(=O)N[C@H](Cc1ccccc1)C(=O)N[C@@H](CCCCNC(=O)c1ccc(F)cc1)C(N)=O [Compound 4-FB-GHRP-6, H-His-D-Trp-Ala-Trp-D-Phe-Lys(4-FB)-NH2] (H-H[dW]AW[dF]K(Benzoyl(4-F))-NH2)	
0.00521	NCCCC[C@H](NC(=O)[C@H](Cc1ccccc1)NC(=O)[C@@H](Cc1ccc2ccccc2c1)NC(=O)[C@@H](Cc1ccc2ccccc2c1)NC(=O)C1CCNCC1)C(N)=O [Compound G-7039, H-Inp-D-2-Nal-D-2-Nal-Phe-Lys-NH2, reference compound] (H-[Inp][d2Nal][d2Nal]FK-NH2)	EC50 [3]: 0.00018 µM
1.06	C[C@H](NC(=O)[C@@H](Cc1c[nH]c2ccccc12)NC(=O)[C@@H](N)Cc1c[nH]cn1)C(=O)N[C@@H](Cc1c[nH]c2ccccc12)C(=O)N[C@H](Cc1ccccc1)C(=O)N[C@@H](CNC(=O)c1ccc(F)cc1)C(N)=O [Dpr-4-FB-GHRP-6, H-His-D-Trp-Ala-Trp-D-Phe-Dpr(4-FB)-NH2] (H-H[dW]AW[dF][Dap](Benzoyl(4-F))-NH2)	
0.181	C[C@H](N)C(=O)N[C@@H](Cc1c[nH]cn1)C(=O)N[C@H](Cc1ccc2ccccc2c1)C(=O)N[C@@H](C)C(=O)N[C@@H](Cc1c[nH]c2ccccc12)C(=O)N[C@H](Cc1ccccc1)C(=O)N[C@@H](CCCCN)C(N)=O [GHRP-1, H-Ala-His-D-2-Nal-Ala-Trp-D-Phe-Lys-NH2, reference compound] (H-AH[d2Nal]AW[dF]K-NH2)	
0.449	C[C@H](NC(=O)[C@@H](Cc1ccc2ccccc2c1)NC(=O)[C@@H](C)N)C(=O)N[C@@H](Cc1c[nH]c2ccccc12)C(=O)N[C@H](Cc1ccccc1)C(=O)N[C@@H](CCCCN)C(N)=O [GHRP-2, H-D-Ala-D-2-Nal-Ala-Trp-D-Phe-Lys-NH2, reference compound] (H-[dA][d2Nal]AW[dF]K-NH2)	
0.688	NC(=O)[C@H](CCCCNC(=O)c1ccc(F)cc1)NC(=O)[C@@H](Cc1ccccc1)NC(=O)[C@@H](Cc1ccc2ccccc2c1)NC(=O)[C@H](Cc1c[nH]cn1)NC(=O)C1CCNCC1 [Inp-4-FB-Ipamorelin, H-Inp-His-D-2-Nal-D-Phe-Lys(4-FB)-NH2] (H-[Inp]H[d2Nal][dF]K(Benzoyl(4-F))-NH2)	
1.17	NC(=O)[C@H](CCCCNC(=O)c1ccc(F)cc1)NC(=O)[C@@H](Cc1cccs1)NC(=O)[C@@H](Cc1ccc2ccccc2c1)NC(=O)[C@H](Cc1c[nH]cn1)NC(=O)C1CCNCC1 [Inp-Thi-4-FB-Ipamorelin, H-Inp-His-D-2-Nal-D-2-Thi-Lys(4-FB)-NH2] (H-[Inp]H[d2Nal][d2Thi]K(Benzoyl(4-F))-NH2)	
0.483	CC(C)(N)C(=O)N[C@@H](Cc1c[nH]cn1)C(=O)N[C@H](Cc1ccc2ccccc2c1)C(=O)N[C@H](Cc1ccccc1)C(=O)N[C@@H](CCCCN)C(N)=O [Ipamorelin, H-Aib-His-D-2-Nal-D-Phe-Lys-NH2, reference compound] (H-[Aib]H[d2Nal][dF]K-NH2)	
0.0276	NCCCC[C@H](NC(=O)[C@H](Cc1cccc2ccccc12)NC(=O)[C@@H](Cc1ccc2ccccc2c1)NC(=O)[C@@H](Cc1ccc2ccccc2c1)NC(=O)C1CCNCC1)C(N)=O [MMF-01-113-G, H-Inp-D-2-Nal-D-2-Nal-1-Nal-Lys-NH2] (H-[Inp][d2Nal][d2Nal][1Nal]K-NH2)	
0.0688	NC(=O)[C@H](CCCCNC(=O)c1ccc(F)cc1)NC(=O)[C@H](Cc1cccc2ccccc12)NC(=O)[C@@H](Cc1ccc2ccccc2c1)NC(=O)[C@@H](Cc1ccc2ccccc2c1)NC(=O)C1CCNCC1 [MMF-01-115-H, H-Inp-D-2-Nal-D-2-Nal-1-Nal-Lys(4-FB)-NH2] (H-[Inp][d2Nal][d2Nal][1Nal]K(Benzoyl(4-F))-NH2)	EC50 value compared with ghrelin [2]: below that of ghrelin; EC50 ([2]; chem-1 cells, Fluo-8 NW dye, duplicate, read-out: EC50, intracellular Ca2+ release): 0.0011 µM
1.92	NC(=O)[C@H](CCCCNC(=O)c1ccc(F)cc1)NC(=O)[C@@H](Cc1ccc2ccccc2c1)NC(=O)[C@@H](Cc1ccc2ccccc2c1)NC(=O)[C@H](Cc1c[nH]cn1)NC(=O)C1CCNCC1 [MMF-01-140-H, H-Inp-His-D-2-Nal-D-2-Nal-Lys(4-FB)-NH2] (H-[Inp]H[d2Nal][d2Nal]K(Benzoyl(4-F))-NH2)	
0.0603	CC(F)C(=O)NCCCC[C@H](NC(=O)[C@H](CO)NC(=O)[C@@H](Cc1ccc2ccccc2c1)NC(=O)[C@@H](Cc1ccc2ccccc2c1)NC(=O)C1CCNCC1)C(N)=O (stereo partly drawn) [TL-MF-2-2FP, H-Inp-(D-2-Nal)2-Ser-Lys(2-FP)-NH2] (H-[Inp][d2Nal][d2Nal]SK(Propanoyl(2-F))-NH2)	
0.000283	CC(F)C(=O)NCCCC[C@H](NC(=O)[C@H](Cc1ccc(O)cc1)NC(=O)[C@@H](Cc1ccc2ccccc2c1)NC(=O)[C@@H](Cc1ccc2ccccc2c1)NC(=O)C1CCNCC1)C(N)=O (stereo partly drawn) [TL-MF-3-2FP, H-Inp-D-2-Nal-D-2-Nal-Tyr-Lys(2-FP)-NH2] (H-[Inp][d2Nal][d2Nal]YK(Propanoyl(2-F))-NH2)	
0.00435	CC(F)C(=O)NCCCC[C@H](NC(=O)[C@H](CO)NC(=O)[C@H](Cc1ccccc1)NC(=O)[C@@H](Cc1ccc2ccccc2c1)NC(=O)[C@@H](Cc1ccc2ccccc2c1)NC(=O)C1CCNCC1)C(N)=O (stereo partly drawn) [TL-MF-4-2FP, H-Inp-(D-2-Nal)2-Phe-Ser-Lys(2-FP)-NH2] (H-[Inp][d2Nal][d2Nal]FSK(Propanoyl(2-F))-NH2)	
0.0629	CC(F)C(=O)NCCCC[C@H](NC(=O)[C@H](Cc1ccccc1)NC(=O)[C@H](CO)NC(=O)[C@@H](Cc1ccc2ccccc2c1)NC(=O)[C@@H](Cc1ccc2ccccc2c1)NC(=O)C1CCNCC1)C(N)=O (stereo partly drawn) [TL-MF-5-2FP, H-Inp-(D-2-Nal)2-Ser-Phe-Lys(2-FP)-NH2] (H-[Inp][d2Nal][d2Nal]SFK(Propanoyl(2-F))-NH2)	
0.161	CC(C)(N)C(=O)N[C@@H](Cc1c[nH]cn1)C(=O)N[C@H](Cc1ccc2ccccc2c1)C(=O)N[C@H](Cc1cccs1)C(=O)N[C@@H](CCCCNC(=O)c1ccc(F)cc1)C(N)=O [Thi-4-FB-Ipamorelin, H-Aib-His-D-2-Nal-D-2-Thi-Lys(4-FB)-NH2] (H-[Aib]H[d2Nal][d2Thi]K(Benzoyl(4-F))-NH2)	
